According to US20260137706A1, “METHODS OF TREATING INFLAMMATORY DISEASES” (INTERLINE THERAPEUTICS, INC., priority 2023, published 2026):

Legend:
[1] = target: T1, binding of His-XIAP(BIR2)-avi fusion protein to GST-RIPK2 fusion protein (RIPK2/XIAP) (Homo sapiens, UniProt O43353); test: RIPK2-XIAP binding competition PPI assay (TR-FRET); conditions: RIPK2/XIAP binding competition PPI assay; for Emax: Amax, read-out: PPI Amax bin; for IC50: read-out: PPI IC50 bin
T1 construct: made in house; host or cells: baculovirus infected Sf9 cells
How it was run: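 Compounds (in DMSO, 100-fold stock) incubated 120 min at 23 °C with 1 nM GST-RIPK2 (aa 1-310) and 25 nM His-XIAP(BIR2 aa 152-231)-avi, plus anti-His-XL665 and anti-GST-Tb, in pH 7.5 Tris buffer. Read-out: 665/520 nm emission ratio. Normalized to no-inhibitor (0%) and 50 nM GSK583 (−100%); Amax binned A–D.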

[2] = test system: NF-κB pathway (SEAP) in THP1-Dual cells; test: THP-1 Dual cell SEAP assay (L18-MDP stimulated); type: cell-based; conditions: Homo sapiens, THP1-Dual, read-out: NF-κB THP1 IC50 bin
How it was run: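 THP1-Dual cells (~25,000/well) were preincubated 30 min with serially diluted compounds, then stimulated with 10 ng/mL L18-MDP (final) for 20-24 h at 37 °C. Supernatant SEAP was read with QUANTI-Blue at OD 620-655 nm after 2 h. IC50 came from non-linear fits of % inhibition versus DMSO/L18-MDP controls after media-blank subtraction.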

[3] = target: T2, GST-RIPK2 fusion protein (human RIPK2, amino acids 1-310) (Homo sapiens, UniProt O43353); test: RIPK2 binding competition assay (TR-FRET, Tracer 199 displacement); conditions: 10 nM Tracer 199, 1 nM GST-RIPK2, read-out: RIPK2 IC50
T2 construct: made in house; host or cells: baculovirus infected Sf9 cells
How it was run: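 GST-RIPK2 (human aa 1-310, Sf9-expressed; final 1 nM) with Tracer 199 (final 10 nM) and Tb-anti-GST (final 0.5 nM) in Tris pH 7.5 buffer, 45 min at 22 °C. TR-FRET 665/620 nm ratio after 337 nm excitation; normalized to no-inhibitor (0%) and no-protein (−100%), giving IC50.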

T2 sequence (O43353 1-310): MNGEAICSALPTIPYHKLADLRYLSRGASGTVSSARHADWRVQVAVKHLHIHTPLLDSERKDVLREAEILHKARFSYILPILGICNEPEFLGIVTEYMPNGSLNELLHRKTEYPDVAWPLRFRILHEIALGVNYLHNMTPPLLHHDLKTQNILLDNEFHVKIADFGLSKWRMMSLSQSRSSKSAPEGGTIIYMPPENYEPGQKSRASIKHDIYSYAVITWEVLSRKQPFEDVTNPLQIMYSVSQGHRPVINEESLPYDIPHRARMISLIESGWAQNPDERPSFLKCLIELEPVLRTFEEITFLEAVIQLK
T1 sequence (O43353 1-310 limits assumed): as the sequence (O43353 1-310) above

CC(C)(C)S(=O)(=O)c1cc2c(-c3cc(F)c(N)nc3F)cnn2cc1OCCOP(=O)(O)O [Example 188, 2-((3-(6-amino-2,5-difluoropyridin-3-yl)-5-(tert-butylsulfonyl)pyrazolo[1,5-a]pyridin-6-yl)oxy)ethyl dihydrogen phosphate]
Emax [1]: > 80% | IC50 [1]: > 20 nM | IC50 [2]: > 1000 nM | IC50 [3]: > 20 nM

CC(C)(C)C(C)(O)c1cn2c(-c3cc(F)c(N)nc3F)cnc2cc1OCCO (stereo not shown) [Example 189, 2-(3-(6-amino-2,5-difluoropyridin-3-yl)-7-(2-hydroxyethoxy)imidazo[1,2-a]pyridin-6-yl)-3,3-dimethylbutan-2-ol]
IC50 [1]: > 20 nM | IC50 [2]: > 1000 nM | IC50 [3]: > 20 nM

CCS(=O)(=O)Nc1cc(-c2cnc3cc(OC)c(C(=O)N4CCOCC4)cn23)cc(F)c1OC [Example 190, N-(3-fluoro-2-methoxy-5-(7-methoxy-6-(morpholine-4-carbonyl)imidazo[1,2-a]pyridin-3-yl)phenyl) ethanesulfonamide]
Emax [1]: 55 to 80% | IC50 [1]: > 20 nM | IC50 [2]: > 1000 nM | IC50 [3]: > 20 nM

CCCS(=O)(=O)Nc1cc(-c2cnc3cc(OC)c(C(=O)N4CCNCC4)cn23)cc(F)c1OC [Example 191, N-(3-fluoro-2-methoxy-5-(7-methoxy-6-(piperazine-1-carbonyl)imidazo[1,2-a]pyridin-3-yl)phenyl)propane-1-sulfonamide]
Emax [1]: > 80% | IC50 [1]: 2.5 to 20 nM | IC50 [2]: > 1000 nM | IC50 [3]: 2.5 to 20 nM

CCS(=O)(=O)Nc1cc(-c2cnc3cc(OC)c(C(=O)N4CCC(O)CC4)cn23)cc(F)c1OC [Example 192, N-(3-fluoro-5-(6-(4-hydroxypiperidine-1-carbonyl)-7-methoxyimidazo[1,2-a]pyridin-3-yl)-2-methoxyphenyl) ethanesulfonamide]
Emax [1]: > 80% | IC50 [1]: 2.5 to 20 nM | IC50 [2]: > 1000 nM | IC50 [3]: 2.5 to 20 nM

C[C@@H](CO)COc1cn2ncc(-c3cc(F)c(N)nc3F)c2cc1S(=O)(=O)C(C)(C)C [Example 194, (S)-3-((3-(6-amino-2,5-difluoropyridin-3-yl)-5-(tert-butylsulfonyl)pyrazolo [1,5-a]pyridin-6-yl)oxy)-2-methylpropan-1-ol]
Emax [1]: > 80% | IC50 [1]: 1 to 2.5 nM | IC50 [2]: 50 to 250 nM | IC50 [3]: < 1 nM

C[C@H](CO)COc1cn2ncc(-c3cc(F)c(N)nc3F)c2cc1S(=O)(=O)C(C)(C)C [Example 195, (R)-3-((3-(6-amino-2,5-difluoropyridin-3-yl)-5-(tert-butylsulfonyl)pyrazolo [1,5-a]pyridin-6-yl)oxy)-2-methylpropan-1-ol]
Emax [1]: > 80% | IC50 [1]: < 1 nM | IC50 [2]: < 50 nM | IC50 [3]: < 1 nM

CC(C)(C)S(=O)(=O)c1cn2c(-c3cc(F)c(N)nc3F)cnc2cc1OC[C@H]1C[C@@H](O)C1 [Example 196, (1s,3s)-3-(((3-(6-amino-2,5-difluoropyridin-3-yl)-6-(tert-butylsulfonyl)imidazo [1,2-a]pyridin-7-yl)oxy)methyl) cyclobutan-1-ol]
Emax [1]: > 80% | IC50 [1]: 1 to 2.5 nM | IC50 [2]: 50 to 250 nM | IC50 [3]: 1 to 2.5 nM

CC(C)(C)S(=O)(=O)c1cn2c(-c3cc(F)c(N)nc3F)cnc2cc1OC[C@H]1C[C@H](O)C1 [Example 197, (1r,3r)-3-(((3-(6-amino-2,5-difluoropyridin-3-yl)-6-(tert-butylsulfonyl)imidazo [1,2-a]pyridin-7-yl)oxy)methyl) cyclobutan-1-ol]
Emax [1]: > 80% | IC50 [1]: < 1 nM | IC50 [2]: 50 to 250 nM | IC50 [3]: < 1 nM

C[C@H](CO)COc1cc2ncc(-c3cc(Cl)c(N)nc3F)n2cc1S(=O)(=O)C(C)(C)C [Example 198, (R)-3-((3-(6-amino-5-chloro-2-fluoropyridin-3-yl)-6-(tert-butylsulfonyl)imidazo [1,2-a]pyridin-7-yl)oxy)-2-methylpropan-1-ol]
Emax [1]: > 80% | IC50 [1]: < 1 nM | IC50 [2]: 50 to 250 nM | IC50 [3]: 1 to 2.5 nM

C[C@@H](CO)COc1cn2ncc(-c3cc(Cl)c(N)nc3F)c2cc1S(=O)(=O)C(C)(C)C [Example 199, (S)-3-((3-(6-amino-5-chloro-2-fluoropyridin-3-yl)-5-(tert-butylsulfonyl)pyrazolo [1,5-a]pyridin-6-yl)oxy)-2-methylpropan-1-ol]
Emax [1]: > 80% | IC50 [1]: < 1 nM | IC50 [2]: 50 to 250 nM | IC50 [3]: < 1 nM

C[C@H](CO)COc1cn2ncc(-c3cc(Cl)c(N)nc3F)c2cc1S(=O)(=O)C(C)(C)C [Example 200, (R)-3-((3-(6-amino-5-chloro-2-fluoropyridin-3-yl)-5-(tert-butylsulfonyl)pyrazolo [1,5-a]pyridin-6-yl)oxy)-2-methylpropan-1-ol]
Emax [1]: > 80% | IC50 [1]: < 1 nM | IC50 [2]: < 50 nM | IC50 [3]: < 1 nM

C[C@@H](CO)COc1cc2ncc(-c3cc(Cl)c(N)nc3F)n2cc1S(=O)(=O)C(C)(C)C [Example 201, (S)-3-((3-(6-amino-5-chloro-2-fluoropyridin-3-yl)-6-(tert-butylsulfonyl)imidazo [1,2-a]pyridin-7-yl)oxy)-2-methylpropan-1-ol]
Emax [1]: > 80% | IC50 [1]: 1 to 2.5 nM | IC50 [2]: 50 to 250 nM | IC50 [3]: 1 to 2.5 nM

CC(C)(C)S(=O)(=O)c1cn2c(-c3cc(F)c(N)nc3F)cnc2cc1OCC(F)(F)CN [Example 202, 5-(7-(3-amino-2,2-difluoropropoxy)-6-(tert-butylsulfonyl)imidazo [1,2-a]pyridin-3-yl)-3,6-difluoropyridin-2-amine]
Emax [1]: > 80% | IC50 [1]: 1 to 2.5 nM | IC50 [2]: 50 to 250 nM | IC50 [3]: 1 to 2.5 nM

CC(C)(C)S(=O)(=O)c1cn2c(-c3cc(F)c(N)nc3F)cnc2cc1OCC(F)CO (stereo not shown) [Example 203, 3-((3-(6-amino-2,5-difluoropyridin-3-yl)-6-(tert-butylsulfonyl)imidazo [1,2-a]pyridin-7-yl)oxy)-2-fluoropropan-1-ol]
Emax [1]: > 80% | IC50 [1]: 1 to 2.5 nM | IC50 [2]: 50 to 250 nM | IC50 [3]: 1 to 2.5 nM

CC(F)(CO)COc1cc2ncc(-c3cc(F)c(N)nc3F)n2cc1S(=O)(=O)C(C)(C)C (stereo not shown) [Example 204, 3-((3-(6-amino-2,5-difluoropyridin-3-yl)-6-(tert-butylsulfonyl)imidazo [1,2-a]pyridin-7-yl)oxy)-2-fluoro-2-methylpropan-1-ol]
Emax [1]: > 80% | IC50 [1]: 1 to 2.5 nM | IC50 [2]: 50 to 250 nM | IC50 [3]: 1 to 2.5 nM

CCCS(=O)(=O)Nc1cc(-c2cnc3cc(OC)c(C(=O)N(C)C(C)C)cn23)cc(F)c1OC [Example 205, 3-(3-fluoro-4-methoxy-5-(propylsulfonamido)phenyl)-N-isopropyl-7-methoxy-N-methylimidazo[1,2-a]pyridine-6-carboxamide]
Emax [1]: 55 to 80% | IC50 [1]: > 20 nM | IC50 [2]: > 1000 nM | IC50 [3]: > 20 nM

CC(C)(C)S(=O)(=O)c1cn2c(-c3ccc4[nH]ccc4c3)cnc2cc1OCCO [Example 206, 2-((6-(tert-butylsulfonyl)-3-(1H-indol-5-yl)imidazo[1,2-a]pyridin-7-yl)oxy)ethan-1-ol]
Emax [1]: 55 to 80% | IC50 [1]: < 1 nM | IC50 [2]: 50 to 250 nM | IC50 [3]: 1 to 2.5 nM

CC(C)(C)S(=O)(=O)c1cn2c(-c3ccc4[nH]cnc4c3)cnc2cc1OCCO [Example 207, 2-((3-(1H-benzo[d]imidazol-5-yl)-6-(tert-butylsulfonyl)imidazo [1,2-a]pyridin-7-yl)oxy)ethan-1-ol]
Emax [1]: < 30% | IC50 [1]: > 20 nM | IC50 [2]: > 1000 nM | IC50 [3]: 2.5 to 20 nM

CC(C)(C)S(=O)(=O)c1cn2c(-c3ccc4nccn4c3)cnc2cc1OCCO [Example 208, 2-((6-(tert-butylsulfonyl)-[3,6′-biimidazo[1,2-a]pyridin] -7-yl)oxy)ethan-1-ol]
Emax [1]: < 30% | IC50 [1]: > 20 nM | IC50 [2]: > 1000 nM | IC50 [3]: 2.5 to 20 nM

CC(C)(C)S(=O)(=O)c1cn2c(-c3ccc4ccnn4c3)cnc2cc1OCCO [Example 209, 2-((6-(tert-butylsulfonyl)-3-(pyrazolo[1,5-a]pyridin-6-yl)imidazo[1,2-a]pyridin-7-yl)oxy)ethan-1-ol]
Emax [1]: 30 to 55% | IC50 [1]: > 20 nM | IC50 [2]: > 1000 nM | IC50 [3]: > 20 nM

CC(C)(C)S(=O)(=O)c1cn2c(-c3cnc4cn[nH]c4c3)cnc2cc1OCCO [Example 210, 2-((6-(tert-butylsulfonyl)-3-(1H-pyrazolo[4,3-b]pyridin-6-yl)imidazo[1,2-a]pyridin-7-yl)oxy)ethan-1-ol]
Emax [1]: < 30% | IC50 [1]: > 20 nM | IC50 [2]: > 1000 nM | IC50 [3]: > 20 nM

COc1cn2ncc(-c3cc(F)c(OC)c(NS(=O)(=O)c4cnn(C)c4)c3)c2nc1OC [Example 211, N-(5-(5,6-dimethoxypyrazolo[1,5-a]pyrimidin-3-yl)-3-fluoro-2-methoxyphenyl)-1-methyl-1H-pyrazole-4-sulfonamide]
Emax [1]: > 80% | IC50 [1]: 2.5 to 20 nM | IC50 [2]: > 1000 nM | IC50 [3]: 2.5 to 20 nM
